Assay results taken from patent US8022225B2, “Triazole derivative” (Taisho Pharmaceutical Co., Ltd, priority 2004, dated 2011).

Tests used:
human Edg-1(S1P1) [1] = target: T1, human Edg-1(S1P1) (Homo sapiens, UniProt P21453); assay: Cell system binding test: inhibition of [3H]-S1P binding to Edg-1(S1P1) gene transferred HEK-293 cells; conditions: [3H]-S1P 10 nM
T1 construct: expressed in transfected cells; host or cells: HEK-293

human Edg-1(S1P1) [2] = target: T1, human Edg-1(S1P1); assay: Membrane system binding test: inhibition of [33P]-S1P binding to the membrane fraction of Edg-1(S1P1) gene transferred HEK-293 cells; conditions: [33P]-S1P 0.1 nM
In short: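 Membranes from HEK-293 cells transfected with Edg-1(S1P1) incubated 1 h at 30 °C with 0.1 nM [^33P]-S1P and compound at 10^−5 M (0.1% DMSO), pH 7.4 buffer with fatty acid-free BSA. Filter-bound radioactivity counted; inhibition rate calculated against no-compound binding, with untransfected-cell background subtracted.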

[3] = 10 μM compound, read-out: Cell system binding test % inhibition (10 μM)
[4] = 10 μM compound, membrane fraction of Edg-1(S1P1) gene transferred HEK-293 cells, read-out: Membrane system binding test % inhibition (10 μM)
[5] = test compound 10^-5 M, 1 hour, read-out: Edg-1(S1P1) binding inhibition rate (cell system binding test)
[6] = test compound 10^-5 M, 1 hour at 30° C., HEK-293 membrane fraction, read-out: Edg-1(S1P1) binding inhibition rate (membrane system binding test)

T1 sequence (P21453 whole entry): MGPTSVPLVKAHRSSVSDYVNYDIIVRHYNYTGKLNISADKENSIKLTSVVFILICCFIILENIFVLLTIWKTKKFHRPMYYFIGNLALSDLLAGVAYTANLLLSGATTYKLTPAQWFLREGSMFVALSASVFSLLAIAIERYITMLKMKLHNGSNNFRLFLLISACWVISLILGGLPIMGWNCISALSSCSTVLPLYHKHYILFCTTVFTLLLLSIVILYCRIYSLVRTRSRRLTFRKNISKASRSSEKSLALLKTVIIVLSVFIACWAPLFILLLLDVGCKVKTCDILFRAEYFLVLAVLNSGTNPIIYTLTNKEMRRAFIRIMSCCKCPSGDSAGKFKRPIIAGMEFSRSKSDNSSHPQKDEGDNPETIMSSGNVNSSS

| SMILES | inhibition at 10 µM (human Edg-1(S1P1) [1]; [3]) | inhibition at 10 µM (human Edg-1(S1P1) [2]; [4]) | melting point | inhibition at 10 µM (human Edg-1(S1P1) [1]; [5]) | inhibition at 10 µM (human Edg-1(S1P1) [2]; [6]) |
| --- | --- | --- | --- | --- | --- |
| CCn1c(S)nnc1[C@@H](C)NS(=O)(=O)c1ccc(Cl)cc1 [Compound 90, 4-chloro-N-[(1R)-1-(4-ethyl-5-mercapto-4H-1,2,4-triazol-3-yl)ethyl]benzenesulfonamide] | 60.6% | 48.8% | 169.5 to 172.5 °C |  |  |
| C=CCSc1nnc([C@@H](C)N(C)S(=O)(=O)c2ccc(Cl)cc2)n1CC [Compound 99, N-{(1R)-1-[5-(allylthio)-4-ethyl-4H-1,2,4-triazol-3-yl]ethyl}-4-chloro-N-methylbenzenesulfonamide] | 75.8% | 57.4% | 142 to 143 °C |  |  |
| CCn1c(OC)nnc1[C@@H](C)NS(=O)(=O)c1ccccc1 [Compound 376, [(1R)-1-(4-Ethyl-5-methoxy-4H-[1,2,4]triazol-3-yl)ethyl]benzenesulfonamide] | 90.7% | 57.3% | 161 to 162 °C |  |  |
| CCn1c(SC)nnc1[C@@H](C)NS(=O)(=O)c1ccc(Cl)cc1 [Compound 1, 4-chloro-N-{(1R)-1-[4-ethyl-5-(methylthio)-4H-1,2,4-triazol-3-yl]ethyl}benzenesulfonamide] | 89.8% | 72.3% | 176 to 177 °C |  |  |
| CCn1c([C@@H](C)NS(=O)(=O)c2ccc(Cl)cc2)nnc1S(C)(=O)=O [Compound 182, 4-Chloro-N-{(1R)-1-[4-ethyl-5-(methylsulfonyl)-4H-1,2,4-triazol-3-yl]ethyl}benzenesulfonamide] | 53.7% |  | 129 to 130 °C |  |  |
| CCCOc1nnc([C@@H](C)NS(=O)(=O)c2ccc(Cl)cc2)n1CC [Compound 183, 4-Chloro-N-[(1R)-1-(4-ethyl-5-propoxy-4H-1,2,4-triazol-3-yl)ethyl]benzenesulfonamide] | 89.2% | 97.7% | 150.5 to 151.5 °C |  |  |
| CCn1c(OCC(F)(F)F)nnc1[C@@H](C)NS(=O)(=O)c1ccc(C(F)(F)F)cc1 [Compound 500] |  |  |  | 103% | 81.6% |
| CCn1c(OCC(F)(F)F)nnc1[C@@H](C)NS(=O)(=O)c1cccc(C)c1 [Compound 505] |  |  |  | 103% | 74.4% |
| CCn1c(OC(C)C)nnc1[C@@H](C)NS(=O)(=O)c1ccc2nsnc2c1 [Compound 472] |  |  |  | 102% | 94.4% |
| CCn1c(OC)nnc1[C@H](C)NS(=O)(=O)c1ccc(C(C)(C)C)cc1 [Compound 201] | 92.6% | 45.3% |  |  |  |
| CCn1c(OC)nnc1[C@@H](C)NS(=O)(=O)c1cccc2ccccc12 [Compound 229] | 102% | 61.1% |  |  |  |
| CCn1c(SCc2ccc(C#N)cc2)nnc1[C@@H](C)NS(=O)(=O)c1ccc(Cl)cc1 [Compound 56] | 87.1% | 91% |  |  |  |
| CCCC(CCC)Sc1nnc([C@@H](C)NS(=O)(=O)c2ccc(Cl)cc2)n1CC [Compound 20] | 84.3% | 74.3% |  |  |  |
| CCOc1nnc([C@@H](C)NS(=O)(=O)c2ccc(F)c(Cl)c2)n1CC [Compound 407] | 94.7% | 81.9% |  |  |  |
| CCn1c(OC)nnc1[C@@H](C)NS(=O)(=O)c1ccsc1C(=O)OC [Compound 255] | 96.3% | 48.3% |  |  |  |
| CCn1c(OCCCO)nnc1[C@@H](C)NS(=O)(=O)c1ccc(Cl)cc1 [Compound 191] | 97.1% | 88.3% |  |  |  |
| CCn1c(OCC(F)(F)F)nnc1[C@@H](C)NS(=O)(=O)c1cccc(C(F)(F)F)c1 [Compound 503] |  |  |  | 104% | 73.3% |
| C=CCSc1nnc(C(CCC)NS(=O)(=O)c2ccc(Cl)cc2)n1C (stereo not shown) [Compound 125, N-{1-[(5-allylthio)-4-methyl-4H-1,2,4-triazol-3-yl]butyl}-4-chlorobenzenesulfonamide] | 69% | 52.4% | 161.5 to 162 °C |  |  |
| CCOc1nnc([C@@H](C)NS(=O)(=O)c2cc(F)c(Br)cc2F)n1CC [Compound 451] | 94.2% | 62.7% |  |  |  |
| CCn1c(SCC2CCN(Cc3ccccc3)CC2)nnc1[C@@H](C)NS(=O)(=O)c1ccc(Cl)cc1 [Compound 72] | 89.8% | 95.8% |  |  |  |
| CCn1c(OC)nnc1[C@@H](C)NS(=O)(=O)c1ccc(Br)c(F)c1 [Compound 317] | 97.2% | 95.8% |  |  |  |

| SMILES | inhibition at 10 µM (human Edg-1(S1P1) [1]; [3]) | inhibition at 10 µM (human Edg-1(S1P1) [2]; [4]) | melting point | inhibition at 10 µM (human Edg-1(S1P1) [1]; [5]) | inhibition at 10 µM (human Edg-1(S1P1) [2]; [6]) |
| --- | --- | --- | --- | --- | --- |
| CCn1c(OC)nnc1[C@@H](C)NS(=O)(=O)c1cccc(F)c1 [Compound 299] | 94.5% | 44.4% |  |  |  |
| CCn1c(OC)nnc1[C@@H](C)NS(=O)(=O)c1c(F)c(F)c(F)c(F)c1F [Compound 237] | 95.4% | 52.5% |  |  |  |
| CCOc1nnc([C@@H](C)NS(=O)(=O)c2cc(F)c(F)c(F)c2)n1CC [Compound 450] | 92.3% | 93.8% |  |  |  |
| CCn1c(SC/C=C/c2ccccc2)nnc1[C@@H](C)NS(=O)(=O)c1ccc(Cl)cc1 [Compound 38] | 91.5% | 81% |  |  |  |
| CCn1c(OC)nnc1[C@@H](C)NS(=O)(=O)c1ccc(C)c(C)c1 [Compound 319] | 93.4% | 89.9% |  |  |  |
| CCn1c(OC(C)C)nnc1[C@@H](C)NS(=O)(=O)c1ccc(Cl)c(Cl)c1 [Compound 453] |  |  |  | 89.4% | 97.1% |
| CCOc1nnc([C@@H](C)NS(=O)(=O)c2ccc(Cl)cc2)n1CC [Compound 186] | 89.3% | 94.5% |  |  |  |
| CCn1c(OC)nnc1[C@@H](C)NS(=O)(=O)c1cc(F)ccc1F [Compound 286] | 97.5% | 57.4% |  |  |  |
| CCn1c(OC)nnc1[C@@H](C)NS(=O)(=O)c1cc(S(=O)(=O)c2ccccc2)cs1 [Compound 250] | 88.7% | 42.9% |  |  |  |
| CCn1c(OC)nnc1[C@@H](C)NS(=O)(=O)c1ccccc1C(F)(F)F [Compound 260] | 89.4% | 46.9% |  |  |  |
| CCn1c(OC)nnc1[C@@H](C)NS(=O)(=O)c1ccc(C)c(F)c1 [Compound 315] | 100% | 85% |  |  |  |
| CCn1c(OCC(F)(F)F)nnc1[C@@H](C)NS(=O)(=O)c1ccc(Cl)c(Cl)c1 [Compound 485] |  |  |  | 103% | 95.5% |
| CCn1c(OC)nnc1[C@@H](C)NS(=O)(=O)c1ccc2c(c1)OCCO2 [Compound 338] | 103% | 69.4% |  |  |  |
| CCn1c(OCCO)nnc1[C@@H](C)NS(=O)(=O)c1ccc(Cl)cc1 [Compound 190] | 91.1% | 41.3% |  |  |  |
| CCn1c(OCC(F)(F)F)nnc1[C@@H](C)NS(=O)(=O)c1cccc(OC(F)F)c1 [Compound 497] |  |  |  | 102% | 66.5% |
| CCn1c(OCC(F)(F)F)nnc1[C@@H](C)NS(=O)(=O)c1ccc(Cl)cc1 [Compound 395] | 91.9% | 83.7% |  |  |  |
| CCn1c(OCC(F)(F)F)nnc1[C@@H](C)NS(=O)(=O)c1cc(F)c(Br)cc1F [Compound 517] |  |  |  | 93.7% | 42.7% |
| CCn1c(SCCCCCCN(C)C)nnc1[C@@H](C)NS(=O)(=O)c1ccc(Cl)cc1 [Compound 66] | 84% | 90.6% |  |  |  |
| CCn1c(OCC(F)(F)F)nnc1[C@@H](C)NS(=O)(=O)c1cccc(Cl)c1C [Compound 498] |  |  |  | 104% | 88.5% |
| CCCCS(=O)(=O)N[C@H](C)c1nnc(OC)n1CC [Compound 202] | 96.6% | 60.3% |  |  |  |
